Experimental data as given in PubChem BioAssay AID248 (DTP/NCI, 2004).
Inconclusive results and toxic doses are left out. Rule as the data show it: active = T/C of 150% or more; inactive = T/C below 125%.

System: L1210 leukemia ip in BDF1 mice, survival T/C
Experiment: NCI In Vivo Anticancer Drug Screen. Data for tumor model L1210 Leukemia (intraperitoneal) in B6D2F1 (BDF1) mice
Settings: endpoint: mean survival time, higher = longer survival
Procedure, shortened: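 Survival endpoint. Drug-treated group vs vehicle group, expressed as T divided by C. Tumor passaged by transplantation.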

[1] = dose: 100.0 mg/kg/injection, schedule: Q01DX009 (ip), vehicle: Klucel (hydroxypropylcellulose) (HPC)
[2] = dose: 100.0 mg/kg/injection, schedule: Q04DX003 (ip), vehicle: Klucel (hydroxypropylcellulose) (HPC)
[3] = dose: 200.0 mg/kg/injection, schedule: Q01DX009 (ip), vehicle: Klucel (hydroxypropylcellulose) (HPC)
[4] = dose: 200.0 mg/kg/injection, schedule: Q04DX003 (ip), vehicle: Klucel (hydroxypropylcellulose) (HPC)
[5] = dose: 400.0 mg/kg/injection, schedule: Q01DX009 (ip), vehicle: Klucel (hydroxypropylcellulose) (HPC)
[6] = dose: 400.0 mg/kg/injection, schedule: Q04DX003 (ip), vehicle: Klucel (hydroxypropylcellulose) (HPC)
[7] = dose: 100.0 mg/kg/injection, schedule: Q04DX003 (ip), vehicle: saline
[8] = dose: 200.0 mg/kg/injection, schedule: Q04DX003 (ip), vehicle: saline
[9] = dose: 100.0 mg/kg/injection, schedule: Q04DX003 (ip), vehicle: saline with Tween-80
[10] = dose: 200.0 mg/kg/injection, schedule: Q04DX003 (ip), vehicle: saline with Tween-80
[11] = dose: 75.0 mg/kg/injection, schedule: Q01DX001 (ip), vehicle: saline
[12] = dose: 25.0 mg/kg/injection, schedule: Q01DX009 (ip), vehicle: saline with Tween-80
[13] = dose: 50.0 mg/kg/injection, schedule: Q01DX009 (ip), vehicle: saline with Tween-80
[14] = dose: 100.0 mg/kg/injection, schedule: Q04DX002 (ip), vehicle: saline
[15] = dose: 200.0 mg/kg/injection, schedule: Q04DX002 (ip), vehicle: saline
[16] = dose: 400.0 mg/kg/injection, schedule: Q04DX002 (ip), vehicle: saline
[17] = dose: 50.0 mg/kg/injection, schedule: Q01DX009 (ip), vehicle: saline
[18] = dose: 100.0 mg/kg/injection, schedule: Q01DX009 (ip), vehicle: saline
[19] = dose: 200.0 mg/kg/injection, schedule: Q01DX009 (ip), vehicle: saline
[20] = dose: 50.0 mg/kg/injection, schedule: Q01DX001 (ip), vehicle: carboxymethylcellulose (CMC)
[21] = dose: 100.0 mg/kg/injection, schedule: Q01DX001 (ip), vehicle: carboxymethylcellulose (CMC)
[22] = dose: 200.0 mg/kg/injection, schedule: Q01DX001 (ip), vehicle: carboxymethylcellulose (CMC)
[23] = dose: 400.0 mg/kg/injection, schedule: Q01DX001 (ip), vehicle: carboxymethylcellulose (CMC)
[24] = dose: 400.0 mg/kg/injection, schedule: Q04DX003 (ip), vehicle: saline
[25] = dose: 100.0 mg/kg/injection, schedule: Q01DX009 (ip), vehicle: saline with Tween-80

Measured: T/C

c1ccc(C2=NN=C(c3ccccc3)CCC2)cc1
inactive: dose: 100.0 mg/kg/injection, schedule: Q04DX003 (ip), vehicle: acetone 95 % of control | dose: 200.0 mg/kg/injection, schedule: Q04DX003 (ip), vehicle: acetone 86 % of control | dose: 400.0 mg/kg/injection, schedule: Q04DX003 (ip), vehicle: acetone 98 % of control

Cc1ccc([N+](=O)[O-])c(C)c1
inactive: [1] 92 % of control | [2] 105 % of control | [3] 96 % of control | [4] 104 % of control | [5] 102 % of control | [6] 102 % of control

Cc1ccc(C(=O)CCN2CCOCC2)cc1C
inactive: [7] 93 % of control | [8] 91 % of control

O=C(Nc1ccccc1)Nn1cnc2ccccc2c1=O
inactive: [9] 89 % of control | [10] 90 % of control | dose: 400.0 mg/kg/injection, schedule: Q04DX003 (ip), vehicle: saline with Tween-80 88 % of control

Cc1ccnc2c(N)cccc12
inactive: [11] 98 % of control

CC1(c2ccccc2)OCCCO1
inactive: dose: 100.0 mg/kg/injection, schedule: Q01DX001 (ip), vehicle: saline with Tween-80 100 % of control | dose: 200.0 mg/kg/injection, schedule: Q01DX001 (ip), vehicle: saline with Tween-80 98 % of control | dose: 400.0 mg/kg/injection, schedule: Q01DX001 (ip), vehicle: saline with Tween-80 107 % of control

COc1cc2c(cc1OC)-c1cc3cc(OC)c(OC)cc3c(C)[n+]1CC2 (tested in a mixture with another compound)
inactive: dose: 12.5 mg/kg/injection, schedule: Q04DX002 (ip), vehicle: Klucel (hydroxypropylcellulose) (HPC) 110 % of control | [12] 104 % of control | dose: 25.0 mg/kg/injection, schedule: Q04DX002 (ip), vehicle: Klucel (hydroxypropylcellulose) (HPC) 106 % of control | [13] 107 % of control | dose: 50.0 mg/kg/injection, schedule: Q04DX002 (ip), vehicle: Klucel (hydroxypropylcellulose) (HPC) 95 % of control

O=C(Nc1ccc(N=Nc2ccccc2)cc1)Nc1cc([N+](=O)[O-])ccc1F
inactive: [2] 86 % of control | [4] 86 % of control | [6] 91 % of control

O=C(CCC(=O)NO)NO
inactive: [14] 110 % of control | [15] 103 % of control | [16] 97 % of control

CC1(C)N=C(N)N=C(N)N1c1cccc(CC(=O)Nc2ccccc2)c1
inactive: dose: 12.5 mg/kg/injection, schedule: Q01DX009 (ip), vehicle: saline 102 % of control | dose: 25.0 mg/kg/injection, schedule: Q01DX009 (ip), vehicle: saline 98 % of control | [17] 102 % of control | [18] 96 % of control | [19] 98 % of control

COC(=O)C(Cc1c[nH]c2ccccc12)N(C)C (configuration not stated)
inactive: dose: 100.0 mg/kg/injection, schedule: Q01DX001 (ip), vehicle: other 101 % of control | dose: 200.0 mg/kg/injection, schedule: Q01DX001 (ip), vehicle: other 103 % of control | dose: 400.0 mg/kg/injection, schedule: Q01DX001 (ip), vehicle: other 98 % of control

Cc1ccc(Oc2cccc(C(=O)O)c2)cc1
inactive: [2] 107 % of control | [4] 96 % of control | [6] 118 % of control

C=CCC1(/C(C)=C/C)C(=O)NC(=O)NC1=O
inactive: [11] 100 % of control | dose: 150.0 mg/kg/injection, schedule: Q01DX001 (ip), vehicle: saline 94 % of control

CC(C)(C)NC(=O)C(Br)c1ccccc1 (configuration not stated)
inactive: dose: 100.0 mg/kg/injection, schedule: Q04DX002 (ip), vehicle: saline with Tween-80 94 % of control | dose: 200.0 mg/kg/injection, schedule: Q04DX002 (ip), vehicle: saline with Tween-80 105 % of control | dose: 400.0 mg/kg/injection, schedule: Q04DX002 (ip), vehicle: saline with Tween-80 94 % of control

CCCCC=C(C)C
inactive: [20] 106 % of control | [21] 93 % of control | [22] 104 % of control | [23] 104 % of control

CCCCCCOC(=O)Nc1cccc2ccccc12
inactive: dose: 75.0 mg/kg/injection, schedule: Q01DX009 (ip), vehicle: saline 94 % of control | dose: 150.0 mg/kg/injection, schedule: Q01DX009 (ip), vehicle: saline 99 % of control | dose: 300.0 mg/kg/injection, schedule: Q01DX009 (ip), vehicle: saline 96 % of control

CCNC(=O)CCP(=O)(CCC(=O)NCC)CCC(=O)NCC
inactive: [17] 94 % of control | dose: 50.0 mg/kg/injection, schedule: Q04DX003 (ip), vehicle: saline 101 % of control | [18] 90 % of control | [7] 101 % of control | [19] 90 % of control | [8] 101 % of control | [24] 101 % of control

CCSC(C)(C)C(C)(C#N)NNC(C)(C#N)C(C)(C)SCC (configuration not stated)
inactive: dose: 100.0 mg/kg/injection, schedule: Q01DX001 (ip), vehicle: saline 101 % of control | dose: 200.0 mg/kg/injection, schedule: Q01DX001 (ip), vehicle: saline 95 % of control | dose: 400.0 mg/kg/injection, schedule: Q01DX001 (ip), vehicle: saline 93 % of control

CCNP(=O)(CCl)NC12CC3CC(CC(C3)C1)C2 (configuration not stated)
inactive: dose: 50.0 mg/kg/injection, schedule: Q01DX009 (ip), vehicle: Klucel (hydroxypropylcellulose) (HPC) 91 % of control | [1] 93 % of control | [3] 93 % of control

O=C(/C=C\c1ccc(NCc2ccc(C(=O)O)cc2)cc1)CCl
inactive: dose: 25.0 mg/kg/injection, schedule: Q04DX003 (ip), vehicle: Klucel (hydroxypropylcellulose) (HPC) 100 % of control | [20] 91 % of control | dose: 50.0 mg/kg/injection, schedule: Q04DX003 (ip), vehicle: Klucel (hydroxypropylcellulose) (HPC) 90 % of control | [2] 95 % of control | [22] 93 % of control | [23] 98 % of control

Cc1nc(Cl)c(C#N)nc1C
inactive: [13] 100 % of control | [25] 96 % of control | [9] 100 % of control | dose: 200.0 mg/kg/injection, schedule: Q01DX009 (ip), vehicle: saline with Tween-80 89 % of control | [10] 94 % of control

O=C1OCC/C1=C\C1CO1 (configuration not stated)
inactive: [14] 97 % of control | [15] 95 % of control | [16] 101 % of control

Cc1cc(C)c(CN)cc1CN
inactive: [12] 95 % of control | [13] 98 % of control | [25] 100 % of control | [9] 97 % of control

CC(=O)Nc1ccccc1.[Hg]
inactive: dose: 1.56 mg/kg/injection, schedule: Q01DX009 (ip), vehicle: saline with Tween-80 90 % of control | dose: 3.13 mg/kg/injection, schedule: Q01DX009 (ip), vehicle: saline with Tween-80 88 % of control

CO/C(N)=N\C(=O)NC1CC(OC(=O)c2ccc(C)cc2)C(COC(=O)c2ccc(C)cc2)O1 (configuration not stated)
inactive: [7] 98 % of control | [8] 104 % of control | [24] 96 % of control

CC(C)(O)C[N+](=O)[O-]
inactive: [17] 88 % of control | [18] 88 % of control | [19] 88 % of control

NCCSc1cc(O)c2c(c1N)C(=O)c1ccccc1C2=O
inactive: [20] 97 % of control | [21] 97 % of control | [22] 100 % of control | [23] 97 % of control

COc1ccc(C2(C#N)CCCCC2)cc1
inactive: [1] 109 % of control | [2] 97 % of control | [3] 98 % of control | [4] 100 % of control | [5] 94 % of control | [6] 101 % of control

C[C@]1(O)CC[C@H]2[C@@H]3CCC4=CC(=O)CCC4=C3C=C[C@@]21C
inactive: [1] 96 % of control | dose: 100.0 mg/kg/injection, schedule: Q04DX003 (sc), vehicle: Klucel (hydroxypropylcellulose) (HPC) 98 % of control | [3] 96 % of control | dose: 200.0 mg/kg/injection, schedule: Q04DX003 (sc), vehicle: Klucel (hydroxypropylcellulose) (HPC) 95 % of control | [5] 110 % of control | dose: 400.0 mg/kg/injection, schedule: Q04DX003 (sc), vehicle: Klucel (hydroxypropylcellulose) (HPC) 101 % of control
